In experiment [1] the test system is SOCS3 expression in healthy keratinocytes. Description: SOCS3 mRNA and protein induction in healthy keratinocytes. Format: cell-based, human. The conditions noted are these: healthy keratinocytes, 3 h mRNA, 6 h protein. As to the method: Figure 1 IL-22 induces SOCS3, which limits STAT3 and Erk1/2 activation (A) Keratinocyte cultures (n = 3) were stimulated with IL-22 or not for 10 min and protein lysates were subjected to immunoprecipitation and WB analyses for basal and phospho-IL-22R1, Tyk2 or Jak1. (B) WB of time-course experiments were performed on keratinocyte cultures (n = 3) to evaluate basal STAT3, Erk1/2 and MEK or phosphor-STAT3 (Tyr705 and Ser 727), phosphor-Erk1/2 and phospho-MEK. Anti-β-actin Ab was used to normalize sample loading. (C) SOCS mRNA and protein levels were detected by real-time PCR or WB analyses in cultured keratinocytes prepared from healthy skin (n = 3) left untreated or stimulated with IL-22 for the indicated time periods and normalized with β-actin values. (D) HaCaT cells stably transfected with myc-tagged SOCS1 (n = 4), SOCS2 (n = 2) and SOCS3 (n = 4) genes or control plasmids (mock, n = 3) were left untreated or stimulated with IL-22 for 15 min or 3 h and lysates subjected to WB with anti-phospho STAT3 (Tyr705), -phospho STAT3 (Ser727), -STAT3, -phospho Erk, -Erk, -c-myc and -β-actin Abs, as indicated. (E) Keratinocyte cultures were transiently transfected with siRNA specific for SOCS3 or control siRNA (NC). After 48-h transfection, cells were stimulated with IL-22 or not for the indicated time periods. In RNA interference experiments, data were obtained by three independent experiments, and SOCS3 depletion was assessed by real-time PCR and WB. […] Data are expressed as ratio of densitometric intensity (D. I.) of phosphorylated and unphosphorylated STAT3 and Erk1/2 proteins. p < 0.05 (*) values were considered significant.
Figure 4 SOCS3 and SOCS1 are poorly expressed in the epidermis of NMSC lesions and are not induced in transformed keratinocytes by IL-22 (A) Immunohistochemistry for SOCS3 and SOCS1 (red staining) was performed respectively on frozen or paraffin-embedded sections from biopsies of healthy skin (i), NLS (ii, iii) and LS (iv, v) areas of BCC and SCC, specimens. Psoriatic skin biopsies were also analyzed (vi). Sections were counterstained with Mayer's H&E and were visually evaluated by an pathologist experienced in dermatology. […] (B) Graphs show SOCS3 and SOCS1 mRNA levels which were detected by real-time PCR analysis in cultured SCC (CAL27 and CAL33) and BCC (M77015) skin tumor lines left untreated or stimulated with IL-22 or IFN-γ for 3 h and normalized for β-actin mRNA expression levels. […] SOCS1 was detected by IP using a specific anti-SOCS1 Ab, whereas SOCS3 by WB with an anti-SOCS3 Ab. […] Densitometric intensity (D.I.) of SOCS1 or SOCS3/β-actin was calculated from three independent experiments and numerically expressed as D. I. Ratio. *p < 0.01; **p < 0.05. […] SOCS3 and phospho-Tyr STAT3 levels were detected by WB and normalized to β-actin levels. […]

Experiment [2] relates to SOCS1 expression in keratinocytes and SCC/BCC lines. Description: SOCS1 mRNA and protein induction. Format: cell-based. The conditions noted are these: all cell lines, 3 h mRNA, 6 h protein. Here is the method: (§1) Figure 4 SOCS3 and SOCS1 are poorly expressed in the epidermis of NMSC lesions and are not induced in transformed keratinocytes by IL-22 (A) Immunohistochemistry for SOCS3 and SOCS1 (red staining) was performed respectively on frozen or paraffin-embedded sections from biopsies of healthy skin (i), NLS (ii, iii) and LS (iv, v) areas of BCC and SCC, specimens. Psoriatic skin biopsies were also analyzed (vi). Sections were counterstained with Mayer's H&E and were visually evaluated by an pathologist experienced in dermatology. One out of four representative staining is shown. Scale bars, […]. (B) Graphs show SOCS3 and SOCS1 mRNA levels which were detected by real-time PCR analysis in cultured SCC (CAL27 and CAL33) and BCC (M77015) skin tumor lines left untreated or stimulated with IL-22 or IFN-γ for 3 h and normalized for β-actin mRNA expression levels. All data were obtained from three independent experiments. […] SOCS1 was detected by IP using a specific anti-SOCS1 Ab, whereas SOCS3 by WB with an anti-SOCS3 Ab. […] Densitometric intensity (D.I.) of SOCS1 or SOCS3/β-actin was calculated from three independent experiments and numerically expressed as D. I. Ratio. *p < 0.01; **p < 0.05. […] SOCS3 and phospho-Tyr STAT3 levels were detected by WB and normalized to β-actin levels. […]

Experiment [3] concerns SOCS3 expression in SCC and BCC skin tumor lines. Put plainly: SOCS3 mRNA and protein induction in SCC or BCC tumor cells. Particulars: SCC (CAL27, CAL33) and BCC (M77015) lines, 3 h mRNA, 6 h protein. Format: cell-based. Here is the method: as §1
The next experiment deals with healthy keratinocytes. Put plainly: CyQUANT proliferation assay, healthy keratinocytes. Format: cell-based, human. Particulars: healthy KC; PD98059 20 μM or S3I-201 10 μM, 48 h. Here is the method: (§2) Figure 6 IL-22-induced proliferation and migration of healthy and transformed keratinocytes is counteracted by KIR-ESS peptide (A) Healthy KC, CAL27 and CAL33 cultures were plated in 96-well plates in quadruplicate for each condition. After 1 day, cells were pre-treated or not with Ctrl1 or KIR-ESS peptides (40 μM), or S31-201 ([…]) and PD98059 ([…]) chemical inhibitors, and, then, stimulated or not with 50 ng/ml of IL-22. Data relative to 48-h treatment are shown and expressed as the values of fluorescence intensity obtained from untreated and IL-22-treated ± SD. Three independent experiments were performed. *p < 0.01. […] (C) Cell-free area was measured and indicated as residual wound. […]
(§3) SOCS1- and SOCS3 stably transfected keratinocytes or cultured keratinocytes previously transfected with SOCS3 or control siRNA were seeded in 96-well plates (1.5–2.0 × 10^4 cells/well), and, the day after, starved in medium without serum. At 60% confluence, cells were treated with 75 ng/ml of IL-22 for 3 days, stained with 0.5% crystal violet (Bio-Rad, Hercules, CA, USA), and then analyzed in an ELISA reader (model 3550 UV ELISA reader; Bio-Rad). […] After 1-h pre-incubation, cells were treated with IL-22 or left unstimulated, cultured for other 24, 48 and 72 h, and the number of viable cells determined by CyQUANT Cell Proliferation Assay, accordingly to manufacture's protocol. […]

Experiment [4] concerns SCC-cell lines (CAL27 and CAL33). Description: CyQUANT proliferation assay, SCC-cell lines. Format: cell-based. Particulars: PD98059 20 μM or S3I-201 10 μM, 48 h. As to the method: as §2, §3
Another experiment has as its system CAL27 cells. Put plainly: Scratch assay (migration), CAL27. Format: cell-based. Particulars: 24 h. As to the method: (§4) Figure 6 IL-22-induced proliferation and migration of healthy and transformed keratinocytes is counteracted by KIR-ESS peptide (A) Healthy KC, CAL27 and CAL33 cultures were plated in 96-well plates in quadruplicate for each condition. After 1 day, cells were pre-treated or not with Ctrl1 or KIR-ESS peptides (40 μM), or S31-201 ([…]) and PD98059 ([…]) chemical inhibitors, and, then, stimulated or not with 50 ng/ml of IL-22. Data relative to 48-h treatment are shown and expressed as the values of fluorescence intensity obtained from untreated and IL-22-treated ± SD. Three independent experiments were performed. *p < 0.01. (B) Scratch assays were carried out on healthy or SCC-lines, pre-incubated with mitomycin C (5 mg/ml), pre-treated with Ctrl1 or KIR-ESS peptides (40 μM), or S31-201 ([…]) or PD98059 ([…]) chemical inhibitors, and, then, stimulated or not with IL-22 for 24 h. Microscopic images were taken immediately after and 24 h after wound induction on confluent cell layers. Initial scratches (0 h) are dashed blank. (C) Cell-free area was measured and indicated as residual wound. Data are reported as healed wound (gray area of bars) vs residual wound (white area of bars) which a value of 100% was given. *p < 0.01.
(§5) Cultured keratinocytes and SCC cell lines were grown at 100% confluence on type IV collagen (20 μg/ml), and then incubated with mitomycin C (5 mg/ml) (Sigma-Aldrich) for 1 h. Cell monolayers were scratched with the tip of a p-200 pipette to create uniform cell-free zones, and, then, pre-treated with appropriate concentrations of SOCS3 mimetic or control peptides, or with 10 μM STAT3 (S3I-201, Santa Cruz) and 20 μM Erk1/2 (PD98059, Calbiochem) inhibitors for 1 h, before treating by 50 ng/ml of IL-22. Microscopy pictures were taken with a digital camera at different time points following IL-22 treatment. The residual gap between migrating keratinocytes was measured with a computer-assisted image analysis system (Axiovision; Zeiss, Oberkochen, Germany), and expressed as percentage of the initial scratched area.

The test system of a further experiment is CAL33 cells. Put plainly: Scratch assay (migration), CAL33. Format: cell-based. The conditions noted are these: CAL33; 40 μM peptide, PD98059 20 μM or S3I-201 10 μM; IL-22 50 ng/ml, 24 h. Here is the method: as §4, §5

As to IFN-γ: cytokine stimulus, R&D Systems, the “SOCS3 mRNA and protein expression” value in experiment [1] and in experiment [3] was “significantly up-regulated by IFN-γ in all cell lines” each time. Moreover, the “SOCS1 mRNA and protein expression” value in experiment [2] is “significantly up-regulated by IFN-γ in all cell lines both at transcriptional and protein level, with the exception of SOCS1 protein in the BCC lines”.

In the case of `Cc1ccc(S(=O)(=O)OCC(=O)Nc2ccc(C(=O)O)c(O)c2)cc1` [S3I-201], the “proliferation (effect relative to KIR-ESS)” value with healthy keratinocytes is “KIR-ESS effect was similar to that observed in all healthy and transformed keratinocyte cultures”; in experiment [4], “KIR-ESS effect was similar to that observed in all healthy and transformed keratinocyte cultures”. Further, the “wound closure / migration, resting cells” value in the experiment with CAL27 cells (CAL27, without IL-22, 40 μM peptide or S31-201 10 μM) is “efficacious in inhibiting migration of CAL27 cells”. In addition, the “wound closure, IL-22-treated” value in the experiment on CAL27 cells (CAL27, 40 μM peptide, PD98059 20 μM or S3I-201 10 μM, IL-22 50 ng/ml) is “effect similar to those obtained with the chemical Erk1/2 and STAT3 inhibitors”; in the experiment on CAL33 cells, “effect similar to those obtained with the chemical Erk1/2 and STAT3 inhibitors”.

For the origin of these results see article PMC5421877, “SOCS3 inhibits the pathological effects of IL-22 in non-melanoma skin tumor-derived keratinocytes” (Oncotarget, 2017).
